The subject of data set [1] is croton oil induced mice ear edema. Particulars: 4 h after application, at ED50 of FA (28 μM); cited from earlier work.
A short description of data set [2]: PAMPA test (skin permeability model). The note with it: for permeability coefficient log Pe / permeation parameter CA(t)/CD(0) / retention factor R (membrane retention): 70% silicone oil-30% IPM membrane, 7 h incubation, 100 μM in 5% DMSO phosphate buffer pH 7, triplicate mean; for Papp at 7 h, 100 μM: PAMPA, pH 7. How it is done:
The study was performed in triplicate and the results are presented as mean values. After the PAMPA tests was performed, a HPLC method was used to measure the concentrations of the investigated corticosteroids: the initial concentration–CD(0) in the starting solution, the residual concentration–CD(t) in the donor compartment (7 h after incubation) and the transferred concentration–CA(t) in the acceptor compartment (7 h after incubation). The assay was performed using the previously described HPLC method with mobile phase modification for determination of standard corticosteroids. The mobile phase modification was introduced to achieve complete separation standard corticosteroids peak from DMSO peak, which was used as cosolvent. DMSO was used as cosolvent with the aim of increasing the corticosteroid C-21 esters’ solubility. DMSO is one of the earliest and most widely studied penetration enhancers for transdermal drug delivery systems.
On the basis of the initial (100 μM) and calculated residual and transferred concentrations according to peak area comparison at zero time t0, the retention factors–R and permeability coefficients–logPe of investigated corticosteroids were obtained.
Phosphate buffer (pH = 7) was prepared by dissolving NaH2PO4·H2O (1.167 g) and Na2HPO4·7H2O (3.093 g) in water (1000 mL) with the fixed total concentration of 20 mM. The 5% DMSO solution were prepared dissolving DMSO in phosphate buffer. The corticosteroid solutions were prepared dissolving the investigated corticosteroid standards as well as new synthesized corticosteroid C-21 esters in 5% DMSO solution. […] An aliquot of previously prepared mixture (3.5 mL, 7 mL silicone oil and 3 mL IPM) was transferred into a 10 mL volumetric flask, dissolved and fill up to mark with n-hexane.
Permeation experiments were carried out in hydrophobic PVDF 96-well filter plates (Millipore, Molsheim, France). […] Next, in each well of acceptor plate, 5% DMSO solution (400 μL) was transferred with an automatic pipette and covered by the donor plate, creating a PAMPA sandwich. In each well of the donor plate solutions of the tested corticosteroid in 5% DMSO solution (100 μM, 300 μL) was transferred by the use of an automatic pipette. Each substance was measured in triplicate at iso-pH conditions (the same pH value in donor and receptor compartment). The donor plate was covered to prevent evaporation and the whole system set up to interact with the vibratory mixer. After 7 h, PAMPA sandwich was removed from the mixer and vibration, and using the HPLC method the concentration of the investigated substances in the donor and receptor compartments were determined. The HPLC method used was as previously described but with some necessary modifications. A mobile phase of methanol–water (75:25 v/v) was used for analysis of corticosteroid C-21 esters, while the mobile phase methanol–water (50:50 v/v) was used for the analysis of unesterified corticosteroids to increase their retention time and prevent overlapping with the DMSO peak. Other HPLC parameters were as previously described. The concentrations of each tested corticosteroid in the appropriate time interval in the donor and acceptor compartments were calculated using the method of comparing the peak area of the initial concentration at zero time t0.
The values of permeability coefficients–logPe and retention factors–R of examined corticosteroids were calculated using equations (2) and (3). The retention factor, R can be defined as the mole fraction retained in the membrane and in the microplates (i.e., filters and plate materials): [drawing 1] (2) where CA(t)/CD(0) represents the amount of compound that reached the acceptor compartment after incubation time t (for VA = VD): […]
(PAMPA measures passive passage across an artificial lipid membrane.)

The nature of data set [3]: approximate logKp (permeability coefficient through human skin) calculated from logPe by equation (1). Particulars: logKp = 1.34 logPe + 0.28, from PAMPA logPe. From the text:
Ottaviani and coworkers predicted skin permeation of numerous compounds applying a new membrane (70% silicone oil and 30% IPM) in the PAMPA test and presented permeate classifications on the basis of available literature permeability coefficients through human skin, logKp.
The proposed equation for correlation between logKp and logPe for 31 investigated compounds was: […]

On the set-up of data set [4]: method as in PMID 16789751. Particulars: 70% silicone-30% IPM membrane, 7 h; cited from earlier work.

Several values for one entry are separate records, joined by “and”; a condition that tells them apart may be missing. Equal values may be shown once.

The source of these data is PMC6268546, “A PAMPA Assay as Fast Predictive Model of Passive Human Skin Permeability of New Synthesized Corticosteroid C-21 Esters” (Molecules, 2012).

Broadly, the Papp is a coefficient for how fast a substance crosses the barrier. The low end stands for poor permeation, the high end for ready permeation.

Take `CC(Oc1ccccc1)C(=O)OCC(=O)C12OC(C)(C)OC1CC1C3CC(F)C4=CC(=O)C=CC4(C)C3(F)C(O)CC12C` (stereo not shown) [FA-21-PhP, fluocinolone acetonide 21-(2′-phenoxypropionate)]: the “relative anti-inflammatory activity (reduction of mass edema) in comparison to FA (100%)” value in data set [1] is recorded as 65%. Besides, in data set [2], the “permeability coefficient log Pe” value is given as −5.68 ± 0.15 cm/s, the “permeation parameter CA(t)/CD(0)” value is on record as 1.3 ± 0.6% and the “retention factor R (membrane retention)” value turned out to be 71.9 ± 2.8%.

With `CCOC(CC)C(=O)OCC(=O)C12OC(C)(C)OC1CC1C3CC(F)C4=CC(=O)C=CC4(C)C3(F)C(O)CC12C` (stereo not shown) [FA-21-EB, fluocinolone acetonide 21-(2′-ethoxybutyrate)], the “relative anti-inflammatory activity (reduction of mass edema) in comparison to FA (100%)” value in data set [1] is listed as 60%. In data set [2], the “permeability coefficient log Pe” value was −4.82 ± 0.10 cm/s, the “permeation parameter CA(t)/CD(0)” value was 7.2 ± 0.9% and the “retention factor R (membrane retention)” value turned out to be 72.8 ± 2.6%.

Take `C[C@@H]1C[C@H]2[C@@H]3CCC4=CC(=O)C=C[C@]4(C)[C@@]3(Cl)[C@@H](O)C[C@]2(C)[C@@]1(OC(=O)c1ccco1)C(=O)CCl` [MF, mometasone furoate, reference compound]: in data set [3], the “logKp (approximate, calculated)” value is on record as −5.21. Besides, in data set [2], the “permeation parameter CA(t)/CD(0)” value is 7.7 ± 1.5%; the “retention factor R (membrane retention)” value worked out at 81.0 ± 2.9%; the apparent permeability (Papp) at 7 h, 100 μM was 794 nm/s. In data set [2] (listed as mometasone furoate), the “permeation parameter CA(t)/CD(0)” value came to 7.7% and the “retention factor R (membrane retention)” value is listed as 81%. In addition, the “permeate classification (groups I-III) from R versus CA(t)/CD(0)” value in data set [2] (relationship between retention factors and permeation parameters, Figure 2) is “group III (having high membrane retention and low permeation (group III))”.

For the compound `CC1(C)O[C@@H]2C[C@H]3[C@@H]4CCC5=CC(=O)C=C[C@]5(C)[C@@]4(F)[C@@H](O)C[C@]3(C)[C@]2(C(=O)CO)O1` [TA, triamcinolone acetonide, reference compound], the “logKp (approximate, calculated)” value in data set [3] is −6.43. Moreover, in data set [2], the “permeation parameter CA(t)/CD(0)” value is 10.8 ± 1.5%; the “retention factor R (membrane retention)” value came to 4.7 ± 2.3%; the Papp at 7 h, 100 μM was 97.7 nm/s.

Regarding `C[C@@H]1C[C@H]2[C@@H]3CCC4=CC(=O)C=C[C@]4(C)[C@@]3(F)[C@@H](O)C[C@]2(C)[C@@]1(O)C(=O)CO` [DEX, dexamethasone, reference compound], in data set [3], the “logKp (approximate, calculated)” value was −7.75. Besides, in data set [2], the “permeation parameter CA(t)/CD(0)” value turned out to be 1.3 ± 0.8% and the “retention factor R (membrane retention)” value is reported as 4.2 ± 2.0%. Moreover, the logPe previously reported in data set [4] is −5.75.

With `CC1(C)O[C@@H]2C[C@H]3[C@@H]4C[C@H](F)C5=CC(=O)C=C[C@]5(C)[C@@]4(F)[C@@H](O)C[C@]3(C)[C@]2(C(=O)CO)O1` [FA, fluocinolone acetonide, reference compound], in data set [1], the “relative anti-inflammatory activity (reduction of mass edema) in comparison to FA (100%)” value is given as 100%. Also, in data set [3], the “logKp (approximate, calculated)” value is given as −6.77. Besides, in data set [2], the “permeation parameter CA(t)/CD(0)” value amounted to 6.7 ± 1.2%; the “retention factor R (membrane retention)” value is less than 1%; the Papp at 7 h, 100 μM was 55 nm/s.

With `COC(C)C(=O)OCC(=O)[C@@]12OC(C)(C)O[C@@H]1C[C@H]1[C@@H]3C[C@H](F)C4=CC(=O)C=C[C@]4(C)[C@@]3(F)[C@@H](O)C[C@@]12C` (stereo partly shown) [FA-21-MP, fluocinolone acetonide 21-(2′-methoxy-propionate)], the “relative anti-inflammatory activity (reduction of mass edema) in comparison to FA (100%)” value in data set [1] is 108.12%. Further, in data set [2], the “permeability coefficient log Pe” value was −4.64 ± 0.17 cm/s, the “permeation parameter CA(t)/CD(0)” value stood at 23.1 ± 1.4% and the “retention factor R (membrane retention)” value is 34.1 ± 3.5%.

Turning to `CCOC(C)C(=O)OCC(=O)[C@@]12OC(C)(C)O[C@@H]1C[C@H]1[C@@H]3C[C@H](F)C4=CC(=O)C=C[C@]4(C)[C@@]3(F)[C@@H](O)C[C@@]12C` (stereo partly shown) [FA-21-EP, fluocinolone acetonide 21-(2′-ethoxypropionate)], the “relative anti-inflammatory activity (reduction of mass edema) in comparison to FA (100%)” value in data set [1] is listed as “less than 10%”. In data set [2], the “permeability coefficient log Pe” value is −4.52 ± 0.19 cm/s, the “permeation parameter CA(t)/CD(0)” value is reported as 22.2 ± 1.6% and the “retention factor R (membrane retention)” value is reported as 45.8 ± 4.1%.

Take `CC(=O)OCC(=O)[C@@]1(O)CC[C@H]2[C@@H]3CCC4=CC(=O)CC[C@]4(C)[C@H]3[C@@H](O)C[C@@]21C` [H-21-Ac, hydrocortisone acetate, reference compound]: the “logKp (approximate, calculated)” value in data set [3] is given as −6.51. Besides, in data set [2], the “permeation parameter CA(t)/CD(0)” value is 10% and 10.0 ± 1.7%; the “retention factor R (membrane retention)” value was less than 1%; the Papp at 7 h, 100 μM is 85.1 nm/s.

With `CC(Oc1ccccc1)C(=O)OCC(=O)C12OC(C)(C)OC1CC1C3CCC4=CC(=O)C=CC4(C)C3(F)C(O)CC12C` (stereo not shown) [TA-21-PhP, triamcinolone acetonide 21-(2′-phenoxypropionate)], in data set [2], the “permeability coefficient log Pe” value is −4.07 ± 0.14 cm/s, the “permeation parameter CA(t)/CD(0)” value is 27.1 ± 1.4% and the “retention factor R (membrane retention)” value is recorded as 51.1 ± 3.8%.
